Results published in ChEMBL document CHEMBL1201862, “PubChem BioAssay data set” (2004).
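Step 1: Grow cells in 96-well plates. Step 2: Expose to compound for 48 hours at 5 concentrations. Step 3: Interpolate endpoints linearly; if unreached, use highest concentration. The concentration for 50% growth inhibition is given as GI50.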 Active and inactive are the calls of the source. Rule as the data show it: active = GI50 up to about 1.1 µM and inactive = higher.

Experiments:
Test in all cases: NCI anticancer screen, dose series, 48 h
[1] = test system: 786-0
[2] = test system: A549
[3] = test system: CAKI-1
[4] = test system: COLO 205
[5] = test system: HCT-116
[6] = test system: HCT-15
[7] = test system: LOX IMVI
[8] = test system: MOLT-4
[9] = test system: Malme-3M
[10] = test system: NCI-H460
[11] = test system: SF-539
[12] = test system: SK-OV-3
[13] = test system: SNB-19
[14] = test system: SW-620
[15] = test system: U-251
[16] = test system: UACC-257
[17] = test system: UACC-62

Row | Structure (SMILES) | GI50 [1] | GI50 [2] | GI50 [3] | GI50 [4] | GI50 [5] | GI50 [6] | GI50 [7] | GI50 [8] | GI50 [9] | GI50 [10] | GI50 [11] | GI50 [12] | GI50 [13] | GI50 [14] | GI50 [15] | GI50 [16] | GI50 [17]
1 | Cn1c(=O)oc2cc(C3CCC(=O)N3Cc3csc(-c4ccccc4)n3)ccc21 (centres undefined) | > 100 µM (inactive) | > 100 µM (inactive) | > 100 µM (inactive) | 77.3 µM (inactive) | > 100 µM (inactive) | > 100 µM | > 100 µM (inactive) | 58.2 µM (inactive) | > 100 µM (inactive) | > 100 µM (inactive) | > 100 µM (inactive) | > 100 µM (inactive) | > 100 µM (inactive) | > 100 µM (inactive) | > 100 µM (inactive) | > 100 µM (inactive) | > 100 µM (inactive)
2 | Cc1cccc(C)c1NC(=O)CCc1nnc2s/c(=C\c3ccc(Cl)cc3)c(=O)n12 | 44 µM (inactive) | > 100 µM (inactive) | > 100 µM (inactive) | 92 µM (inactive) | 25.2 µM (inactive) | 19.1 µM | > 100 µM (inactive) | > 100 µM (inactive) | > 100 µM (inactive) | > 100 µM (inactive) | 40.6 µM (inactive) | 31.8 µM (inactive) | > 100 µM (inactive) | 21.2 µM (inactive) | 83.9 µM (inactive) | > 100 µM (inactive) | > 100 µM (inactive)
3 | O=CN1CCN(C=S)CC1 | > 100 µM (inactive) | > 100 µM (inactive) | > 100 µM (inactive) | > 100 µM (inactive) | > 100 µM (inactive) | > 100 µM | > 100 µM (inactive) | > 100 µM (inactive) | > 100 µM (inactive) | > 100 µM (inactive) | > 100 µM (inactive) | > 100 µM (inactive) | > 100 µM (inactive) | > 100 µM (inactive) | > 100 µM (inactive) | > 100 µM (inactive) | > 100 µM (inactive)
4 | C[n+]1ccc(Nc2ccc(NC(=O)c3ccc(Nc4cc[n+](C)c5ccc([N+](=O)[O-])cc45)cc3[N+](=O)[O-])cc2)cc1 | 27.4 µM (inactive) | 22 µM (inactive) | > 73.1 µM (inactive) | 22.5 µM (inactive) | 30.5 µM (inactive) | 61.2 µM | > 39.7 µM (inactive) | 35.3 µM (inactive) | 19.5 µM (inactive) | 23.7 µM (inactive) | 27 µM (inactive) | 57.8 µM (inactive) | > 59.2 µM (inactive) |  | 21.7 µM (inactive) | 23.6 µM (inactive) | 31.3 µM (inactive)
5 | Cc1c(C2Cc3ccccc3N2)c2ccccc2n1C (centres undefined) | > 100 µM (inactive) | > 100 µM (inactive) | > 100 µM (inactive) | > 100 µM (inactive) | > 100 µM (inactive) | 36.3 µM | > 100 µM (inactive) | > 100 µM (inactive) | > 100 µM (inactive) | 79.1 µM (inactive) | > 100 µM (inactive) | > 100 µM (inactive) | > 100 µM (inactive) | > 100 µM (inactive) | > 100 µM (inactive) | > 100 µM (inactive) | > 100 µM (inactive)
6 | CCOC(=O)Cc1csc(Nc2ccccc2[N+](=O)[O-])n1 | > 100 µM (inactive) | > 100 µM (inactive) | > 100 µM (inactive) | > 100 µM (inactive) | > 76.4 µM (inactive) | > 56.6 µM | > 46.7 µM (inactive) | > 100 µM (inactive) | > 100 µM (inactive) | > 100 µM (inactive) | > 100 µM (inactive) | > 100 µM (inactive) | > 100 µM (inactive) | > 57.5 µM (inactive) | > 100 µM (inactive) | > 100 µM (inactive) | > 100 µM (inactive)
7 | COC(=O)C1C(C(=O)OC)C2(OC)c3ccccc3-c3ccccc3C12 (centres undefined) | 75.2 µM (inactive) | 36.4 µM (inactive) | 40.1 µM (inactive) | 16.1 µM (inactive) | 35.4 µM (inactive) | 28.4 µM | 25.6 µM (inactive) | 12.1 µM (inactive) | 47.9 µM (inactive) | 34.4 µM (inactive) | 66.5 µM (inactive) | 80 µM (inactive) | 60 µM (inactive) | 48.1 µM (inactive) | 42.9 µM (inactive) | 24.2 µM (inactive) | 26.1 µM (inactive)
8 | NC(CCCCNCc1ccccc1O)C(=O)O (centres undefined) | > 100 µM (inactive) | > 100 µM (inactive) | > 100 µM (inactive) | > 100 µM (inactive) | > 100 µM (inactive) | > 100 µM | > 100 µM (inactive) | > 100 µM (inactive) | > 100 µM (inactive) | > 100 µM (inactive) | > 100 µM (inactive) | > 100 µM (inactive) | > 100 µM (inactive) | > 100 µM (inactive) | > 100 µM (inactive) | > 100 µM (inactive) | > 100 µM (inactive)
9 | O=c1c2cccnc2ncn1CCCN1CCOCC1 | > 100 µM (inactive) | > 100 µM (inactive) | > 100 µM (inactive) | > 100 µM (inactive) | > 100 µM (inactive) |  | > 100 µM (inactive) | > 10 µM (inactive) | > 100 µM (inactive) | > 100 µM (inactive) | > 100 µM (inactive) | > 100 µM (inactive) | > 100 µM (inactive) | > 100 µM (inactive) | > 100 µM (inactive) |  | > 100 µM (inactive)
10 | NC(N)NCCCc1cn2c(n1)C1CCCN1C(=O)C2Cc1ccccc1 (centres undefined) | > 100 µM (inactive) | > 100 µM (inactive) | > 100 µM (inactive) | > 100 µM (inactive) | > 100 µM (inactive) | > 100 µM | > 100 µM (inactive) | > 100 µM (inactive) | > 100 µM (inactive) | > 100 µM (inactive) | > 100 µM (inactive) | > 100 µM (inactive) | > 100 µM (inactive) | > 100 µM (inactive) | > 100 µM (inactive) | > 100 µM (inactive) | > 100 µM (inactive)
11 | O=C1CCC(=O)N2CCCCN12 | > 100 µM (inactive) | > 100 µM (inactive) | > 100 µM (inactive) | > 100 µM (inactive) | > 100 µM (inactive) | > 100 µM | > 100 µM (inactive) | > 100 µM (inactive) | > 100 µM (inactive) | > 100 µM (inactive) | > 100 µM (inactive) | > 100 µM (inactive) | > 100 µM (inactive) | > 100 µM (inactive) | > 100 µM (inactive) | > 100 µM (inactive) | > 100 µM (inactive)
12 | CCCc1n[nH]c(CCC(=O)N(Cc2ccccc2)Cc2ccccc2)c1CC | > 100 µM (inactive) | > 100 µM (inactive) | > 100 µM (inactive) | > 100 µM (inactive) |  | > 100 µM | > 100 µM (inactive) | > 100 µM (inactive) | > 100 µM (inactive) | > 100 µM (inactive) | > 100 µM (inactive) | > 100 µM (inactive) | > 100 µM (inactive) | > 100 µM (inactive) |  | > 100 µM (inactive) | > 100 µM (inactive)
